From PMC10819019 (Pharmaceutics, 2024)

What was measured:
[1] = cited from earlier work
[2] = Metabolite profiling in rats (bile, plasma, liver); assay type: in vivo, male Sprague–Dawley rats; details: saxagliptin 100 mg/kg intraperitoneal injection, samples up to 4 h
Description: Male Sprague–Dawley (SD) rats (7 weeks old, 200–225 g) were purchased from SamTako Co. (Osan, Republic of Korea). The animals were acclimatized for one week in an animal facility at the College of Pharmacy, Kyungpook National University (Daegu, Republic of Korea). The Kyungpook National University Animal Care and Use Committee (KNU 2021-0120, 12 July 2021) approved the study protocol, conducted under the National Institutes of Health guidance for the care and use of laboratory animals. […] The bile duct was cannulated with polyethylene tubes (PE-10, Jungdo, Seoul, Republic of Korea) under isoflurane anesthesia (isoflurane vaporizer to 2% with oxygen flow at 0.8 L/min). […] Bile samples were then collected for 4 h. […] The liver tissues were immediately excised, gently washed with ice-cold saline-soaked wet tissue to remove the contaminated blood, and homogenized with 4 volumes of saline. Aliquots of plasma, bile, and 20% liver homogenates were stored at −80 °C until the analysis.
The liver homogenates were vortexed with the same volume of methanol/acetonitrile mixtures (1/1, v/v) and centrifuged (13,500× g, 10 min). The remaining pellets were reextracted twice, and pooled supernatants were dried and reconstituted with 50% methanol in water (100 μL) for LC-MS/MS analysis. Protein concentrations in the pellets were determined using a Bradford protein assay kit (Bio-Rad Laboratories, Hercules, CA, USA) with bovine serum albumin as a standard. The rat bile and plasma (200 μL) samples were vortexed with the same methanol/acetonitrile mixture volume (1/1, v/v). The mixture was centrifuged after vortexing, and the supernatants were dried to complete dryness and reconstituted with 50% methanol in water (100 μL) for LC-MS/MS analysis. The contents of biliverdin in the bile samples were analyzed by measuring ultraviolet absorbance at 380 nm using a microplate reader (Infinite M200 PRO, TECAN, Mannedorf, Switzerland) after 10-fold dilution with 50% methanol.

[3] = Metabolite profiling in rat liver microsomes; assay type: in vitro ADME; details: for Metabolite detection in incubates of saxagliptin: saxagliptin 100 μM, RLM 1 mg/mL, NADPH-generating system and/or L-cysteine, 2 h
Protocol: L-cysteine (100 mM), glutathione (2.5 mM), or UDPGA (5 mM) was added after pre-incubation with or without 100 mM L-cysteine at 37 °C for 5 min to an NADPH-generating system (1.3 mM of NADP^+, 3.3 mM of G6P, 1 unit/mL of G6PDH, and 3.3 mM of MgCl2) to initiate the microsomal reaction. The reaction was stopped by adding cold acetonitrile after microsomal incubation for 2 h.
In the presence of L-cysteine (100 mM) or glutathione (100 mM) in phosphate buffer (100 mM, pH of 7.4), 5-Hydroxysaxagliptin (100 μM) was incubated at 37 °C for 2 h. The supernatants were analyzed using high-resolution Orbitrap MS after incubation reaction termination and centrifugation.

Row | Metabolite detection in rat bile, plasma and liver tissues [2] | SMILES | Stability on incubation with L-cysteine [1] | other results
1 | – | Cc1cc2ncc(C(=O)NCC(C)(C)NCC(=O)N3CCC[C@H]3C#N)cn2n1 [anagliptin] | unstable | –
2 | – | NC(C(=O)N1C(C2=NC(C(=O)O)CS2)CC2CC21)C12CC3CC(O)(CC(O)(C3)C1)C2 (stereo not shown) [Metabolite M4, 5-Hydroxysaxagliptin–cysteine conjugate] | – | Metabolite detection in incubate of 5-hydroxysaxagliptin with L-cysteine ([3]; microsomal incubation with 5-hydroxysaxagliptin in the presence of L-cysteine): detected
3 | observed in rats | NC(C(=O)N1C(C2=NC(C(=O)NCC(=O)O)CS2)CC2CC21)C12CC3CC(O)(CC(O)(C3)C1)C2 (stereo not shown) [Metabolite M6, 5-Hydroxysaxagliptin–cysteinylglycine conjugate] | – | –
4 | – | Cn1c(=O)cc(N2CCC[C@@H](N)C2)n(Cc2ccccc2C#N)c1=O [alogliptin] | stable | –
5 | only found in rat bile | N#CC1CC2CC2N1C(=O)C(N)C12CC3CC(CC(OS(=O)(=O)O)(C3)C1)C2 (stereo not shown) [Metabolite M7, Saxagliptin-O-sulfate] | – | –
6 | – | N#CC1CC2CC2N1C(=O)C(N)C12CC3CC(O)(CC(O)(C3)C1)C2 (stereo not shown) [Metabolite M2, 5-Hydroxysaxagliptin] | – | Metabolite detection in incubates of saxagliptin [3]: observed in rat liver microsomal incubation samples regardless of the addition of L-cysteine
7 | – | N[C@@H](CC(=O)N1CCn2c(nnc2C(F)(F)F)C1)Cc1cc(F)c(F)cc1F [sitagliptin] | stable | –
8 | observed in rats | NC(C(=O)N1C(C2=NC(C(=O)O)CS2)CC2CC21)C12CC3CC(CC(O)(C3)C1)C2 (stereo not shown) [Metabolite M3, Saxagliptin–cysteine conjugate] | – | Metabolite detection in incubates of saxagliptin [3]: formed in an enzyme-nonspecific manner
9 | – | N=C1NC(C23CC4CC(CC(O)(C4)C2)C3)N2C1CC1CC12 (stereo not shown) [Metabolite M1, Saxagliptin cyclic amidine] | – | Metabolite detection in incubates of saxagliptin [3]: found in the incubation sample of saxagliptin with buffer solution (Figure 5a) and RLM (Figure 5c) in the presence of +L-cysteine
10 | – | CC#CCn1c(N2CCC[C@@H](N)C2)nc2c1c(=O)n(Cc1nc(C)c3ccccc3n1)c(=O)n2C [linagliptin] | stable | –

Row | SMILES | Metabolite detection in rat bile, plasma and liver tissues [2] | Stability on incubation with L-cysteine [1] | other results
11 | NC(C(=O)N1C(C2=NC(C(=O)NCC(=O)O)CS2)CC2CC21)C12CC3CC(CC(O)(C3)C1)C2 (stereo not shown) [Metabolite M5, Saxagliptin–cysteinylglycine conjugate] | found in rat bile, plasma, and liver tissues | – | –
12 | N#CC1CC2CC2N1C(=O)C(N)C12CC3CC(CC(OC4OC(C(=O)O)C(O)C(O)C4O)(C3)C1)C2 (stereo not shown) [Metabolite M8, Saxagliptin-O-glucuronide] | observed in rat bile, plasma, and liver tissues | – | –
